The text below walks through data of PMC7982320 (Pharmacology Research & Perspectives, 2021).

pIC50: −log10 of the molar value.

One data set addresses CYP2D6 (Homo sapiens, UniProt P10635). Briefly: CYP inhibition in pooled human liver microsomes, dextromethorphan probe. In kind it is in vitro ADME. The conditions noted are these: read-out: IC50, No preincubation; CYP2D6, pooled HLMs, n = 3.
The target in a further data set is T1, human MATE1 (Homo sapiens, UniProt Q96FL8).
T1 sequence (Q96FL8 1-570): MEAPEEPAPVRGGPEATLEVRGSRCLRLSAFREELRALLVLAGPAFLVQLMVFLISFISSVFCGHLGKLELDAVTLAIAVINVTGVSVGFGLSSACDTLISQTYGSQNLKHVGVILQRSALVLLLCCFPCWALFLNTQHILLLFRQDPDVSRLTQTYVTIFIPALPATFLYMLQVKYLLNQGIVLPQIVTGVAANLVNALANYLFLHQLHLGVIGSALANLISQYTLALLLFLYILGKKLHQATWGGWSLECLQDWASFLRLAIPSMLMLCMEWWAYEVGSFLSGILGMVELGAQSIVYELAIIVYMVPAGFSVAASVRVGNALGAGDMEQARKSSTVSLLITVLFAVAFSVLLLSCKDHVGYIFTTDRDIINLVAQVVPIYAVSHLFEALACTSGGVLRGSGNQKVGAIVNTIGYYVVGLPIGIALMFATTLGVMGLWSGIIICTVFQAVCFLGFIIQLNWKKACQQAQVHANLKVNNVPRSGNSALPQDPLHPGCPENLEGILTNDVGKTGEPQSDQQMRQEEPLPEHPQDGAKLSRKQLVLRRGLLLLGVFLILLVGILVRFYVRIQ
Briefly: Transporter inhibition, uptake assay. In kind it is in vitro ADME.

A further data set concerns the target human MATE2‐K (Homo sapiens, UniProt Q86VL8). Briefly: Transporter inhibition, uptake assay. The data set is classed as in vitro ADME.
The target in the next data set is T2, human OATP1B1 (Homo sapiens, UniProt Q9Y6L6).
T2 sequence (Q9Y6L6 1-691): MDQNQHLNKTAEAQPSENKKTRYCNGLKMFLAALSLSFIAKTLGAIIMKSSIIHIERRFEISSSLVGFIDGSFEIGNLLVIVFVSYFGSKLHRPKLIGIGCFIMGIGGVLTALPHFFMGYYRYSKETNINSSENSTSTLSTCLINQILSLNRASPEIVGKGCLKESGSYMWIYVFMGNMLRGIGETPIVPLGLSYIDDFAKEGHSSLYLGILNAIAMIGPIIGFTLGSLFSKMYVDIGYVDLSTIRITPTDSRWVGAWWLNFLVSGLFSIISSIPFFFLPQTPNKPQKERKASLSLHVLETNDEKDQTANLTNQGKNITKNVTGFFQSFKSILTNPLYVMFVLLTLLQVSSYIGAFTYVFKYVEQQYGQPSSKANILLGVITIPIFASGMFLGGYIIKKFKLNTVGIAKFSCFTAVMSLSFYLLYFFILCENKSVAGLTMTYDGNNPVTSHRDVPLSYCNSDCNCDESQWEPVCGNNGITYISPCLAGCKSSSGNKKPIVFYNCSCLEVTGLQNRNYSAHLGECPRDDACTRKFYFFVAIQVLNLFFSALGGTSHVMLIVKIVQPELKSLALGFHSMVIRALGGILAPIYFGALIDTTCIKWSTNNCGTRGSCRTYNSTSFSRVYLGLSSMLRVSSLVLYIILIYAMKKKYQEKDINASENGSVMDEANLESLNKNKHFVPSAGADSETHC
Briefly: Transporter inhibition, uptake assay. In kind it is in vitro ADME.

The next data set addresses T3, human OATP1B3 (Homo sapiens, UniProt Q9NPD5).
T3 sequence (Q9NPD5 1-702): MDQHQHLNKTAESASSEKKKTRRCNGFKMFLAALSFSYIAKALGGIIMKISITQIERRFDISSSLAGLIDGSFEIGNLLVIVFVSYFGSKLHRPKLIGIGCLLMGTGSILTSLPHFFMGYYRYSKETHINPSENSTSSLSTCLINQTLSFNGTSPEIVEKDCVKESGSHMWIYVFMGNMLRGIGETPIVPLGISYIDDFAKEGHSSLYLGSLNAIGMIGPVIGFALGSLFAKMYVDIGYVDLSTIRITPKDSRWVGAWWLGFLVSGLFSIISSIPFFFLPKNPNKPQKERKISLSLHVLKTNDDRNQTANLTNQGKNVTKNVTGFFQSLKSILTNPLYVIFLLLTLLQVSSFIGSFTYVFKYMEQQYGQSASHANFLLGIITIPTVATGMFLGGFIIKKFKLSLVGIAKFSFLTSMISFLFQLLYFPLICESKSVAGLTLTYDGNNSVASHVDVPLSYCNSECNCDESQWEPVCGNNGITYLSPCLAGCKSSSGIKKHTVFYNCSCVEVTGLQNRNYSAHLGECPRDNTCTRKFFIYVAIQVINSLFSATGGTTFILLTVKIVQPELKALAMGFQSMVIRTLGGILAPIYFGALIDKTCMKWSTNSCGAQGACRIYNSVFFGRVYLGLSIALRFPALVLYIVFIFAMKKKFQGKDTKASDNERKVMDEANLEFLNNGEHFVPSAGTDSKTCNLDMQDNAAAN
The experiment in a line: Transporter inhibition, uptake assay. In kind it is in vitro ADME.

For data set [1] the following is noted: healthy male subjects, single oral dose of 60 mg 14C‐DFZ; cited from earlier work.

Chain of human MATE2‐K (Q86VL8 1-566 isoform Q86VL8-3): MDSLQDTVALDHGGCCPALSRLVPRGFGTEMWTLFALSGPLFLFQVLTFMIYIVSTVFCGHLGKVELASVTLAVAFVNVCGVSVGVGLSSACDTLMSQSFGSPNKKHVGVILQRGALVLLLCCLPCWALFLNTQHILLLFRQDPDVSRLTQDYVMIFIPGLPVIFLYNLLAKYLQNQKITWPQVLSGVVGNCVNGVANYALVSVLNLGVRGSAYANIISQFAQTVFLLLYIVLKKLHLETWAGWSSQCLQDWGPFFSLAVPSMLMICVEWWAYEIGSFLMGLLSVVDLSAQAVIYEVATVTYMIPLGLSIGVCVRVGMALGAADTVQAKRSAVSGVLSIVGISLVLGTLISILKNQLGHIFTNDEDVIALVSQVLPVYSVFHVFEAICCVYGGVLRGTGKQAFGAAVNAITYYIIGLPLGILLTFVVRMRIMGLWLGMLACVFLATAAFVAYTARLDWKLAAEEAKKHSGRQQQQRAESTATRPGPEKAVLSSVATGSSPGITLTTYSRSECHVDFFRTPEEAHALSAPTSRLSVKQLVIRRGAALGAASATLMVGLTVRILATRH
Chain of CYP2D6 (P10635 whole entry): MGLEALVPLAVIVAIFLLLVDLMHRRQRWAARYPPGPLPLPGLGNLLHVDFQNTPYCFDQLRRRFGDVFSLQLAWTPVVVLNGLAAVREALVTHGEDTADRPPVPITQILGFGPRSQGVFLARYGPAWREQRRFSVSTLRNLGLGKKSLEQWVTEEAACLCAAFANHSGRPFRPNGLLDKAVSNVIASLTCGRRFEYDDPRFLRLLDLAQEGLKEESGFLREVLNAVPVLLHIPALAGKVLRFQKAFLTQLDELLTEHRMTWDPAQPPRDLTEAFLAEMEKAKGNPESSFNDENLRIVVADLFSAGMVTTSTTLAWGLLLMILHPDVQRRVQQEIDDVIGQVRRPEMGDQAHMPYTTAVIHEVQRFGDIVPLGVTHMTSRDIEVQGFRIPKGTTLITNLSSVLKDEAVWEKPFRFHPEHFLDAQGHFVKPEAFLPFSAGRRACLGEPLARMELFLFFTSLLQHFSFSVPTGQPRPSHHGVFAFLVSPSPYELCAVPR

Turning to `CC1=N[C@]2(C(=O)CO)[C@@H](C[C@H]3[C@@H]4C[C@@H](O)C5=CC(=O)C=C[C@]5(C)[C@H]4[C@@H](O)C[C@@]32C)O1` [6β‐OH‐21‐desDFZ, 6β‐Hydroxy‐21‐desacetyl deflazacort], the pIC50 at CYP2D6 is under 4.30; at human OATP1B1 (OATP1B1 UPT, brackets: 95% confidence interval), 4.44; against human OATP1B3 (OATP1B3 UPT, brackets: 95% confidence interval) it was 4.37. The “inhibitory interaction with transporter” value is “no inhibitory interaction” against human MATE1 (MATE1, up to 50 µM) and “no inhibitory interaction” at human MATE2‐K (MATE2‐K, up to 50 µM). Also, the “Maximum inhibition at 50 µM” value at human MATE1 (MATE1 UPT, n = 3) is listed as 26 % of control; on human MATE2‐K (MATE2‐K UPT, n = 3), 26 % of control; at human OATP1B1 (OATP1B1 UPT, n = 3) it was 67 % of control; at human OATP1B3 (OATP1B3 UPT, n = 3), 57 % of control. Further, the “estimated plasma Cmax/IC50 ratio” value is on record as 0.009 on human OATP1B1 (OATP1B1, Cmax 0.34 µM, assumed 100% free) and 0.008 on human OATP1B3 (OATP1B3, Cmax 0.34 µM, assumed 100% free). The “share of 0–24 h plasma levels of total radioactivity” value in data set [1] is 25%.

What is called pIC50 is the IC50 on a negative log10 scale, so that one unit is a factor of ten.
